Tested on: human JAK1 (a.a. 837-1142)
Experiment: In vitro JAK kinase assay (HTRF, phosphorylation of biotinylated peptide), JAK1
Format: biochemical
Conditions: ratio of IC50 at 1 mM ATP
Method: The catalytic activity of JAK1, JAK2 or JAK3 was assayed by measuring the phosphorylation of a biotinylated peptide. The phosphorylated peptide was detected by homogenous time resolved fluorescence (HTRF). […] Reactions were carried out at room temperature for 1 hour and then stopped with 20 μL 45 mM EDTA, 300 nM SA-APC, 6 nM Eu-Py20 in assay buffer (Perkin Elmer, Boston, Mass.). Binding to the Europium labeled antibody took place for 40 minutes and HTRF signal was measured on a Fusion plate reader (Perkin Elmer, Boston, Mass.).

| Compound | JAK2/JAK1 |
| --- | --- |
| CC(C)NC(=O)c1cc(F)c(N2CC(CC#N)(n3cc(-c4ncnc5[nH]ccc45)cn3)C2)cc1F [Example 6, 4-{3-(Cyanomethyl)-3-[4-(7H-pyrrolo[2,3-d]pyrimidin-4-yl)-1H-pyrazol-1-yl]azetidin-1-yl}-2,5-difluoro-N-isopropylbenzamide] | A (A means greater than or equal to 10) |
| C[C@@H](NC(=O)c1ccc(N2CC(CC#N)(n3cc(-c4ncnc5[nH]ccc45)cn3)C2)c(F)c1)C(F)(F)F [Example 16, 4-{3-(Cyanomethyl)-3-[4-(7H-pyrrolo[2,3-d]pyrimidin-4-yl)-1H-pyrazol-1-yl]azetidin-1-yl}-3-fluoro-N-[(1R)-2,2,2-trifluoro-1-methylethyl]benzamide] | A (A means greater than or equal to 10) |
| N#CCC1(n2cc(-c3ccnc4[nH]ccc34)cn2)CN(c2ccc(C(=O)NC3(C(F)(F)F)CC3)nc2)C1 [Example 40, 5-{3-(Cyanomethyl)-3-[4-(1H-pyrrolo[2,3-b]pyridin-4-yl)-1H-pyrazol-1-yl]azetidin-1-yl}-N-[1-(trifluoromethyl)cyclopropyl]pyridine-2-carboxamide] | A (A means greater than or equal to 10) |
| C[C@H](NC(=O)c1cc(F)c(N2CC(CC#N)(n3cc(-c4ncnc5[nH]ccc45)cn3)C2)cc1F)C(F)(F)F [Example 28, 4-{3-(Cyanomethyl)-3-[4-(7H-pyrrolo[2,3-d]pyrimidin-4-yl)-1H-pyrazol-1-yl]azetidin-1-yl}-2,5-difluoro-N-[(1S)-2,2,2-trifluoro-1-methylethyl]benzamide] | A (A means greater than or equal to 10) |
| N#CCC1(n2cc(-c3ncnc4[nH]ccc34)cn2)CN(c2cnc(C(=O)NC3(C(F)(F)F)CC3)cn2)C1 [Example 33, 5-{3-(Cyanomethyl)-3-[4-(7H-pyrrolo[2,3-d]pyrimidin-4-yl)-1H-pyrazol-1-yl]azetidin-1-yl}-N-[1-(trifluoromethyl)cyclopropyl]pyrazine-2-carboxamide] | A (A means greater than or equal to 10) |
| C[C@H](NC(=O)c1ccc(N2CC(CC#N)(n3cc(-c4ccnc5[nH]ccc45)cn3)C2)cn1)C1CC1 [Example 2, 5-{3-(Cyanomethyl)-3-[4-(1H-pyrrolo[2,3-b]pyridin-4-yl)-1H-pyrazol-1-yl]azetidin-1-yl}-N-[(1S)-1-cyclopropylethyl]pyridine-2-carboxamide] | A (A means greater than or equal to 10) |
| CCNC(=O)c1ccc(N2CC(CC#N)(n3cc(-c4ncnc5[nH]ccc45)cn3)C2)cn1 [Example 24, 5-{3-(Cyanomethyl)-3-[4-(7H-pyrrolo[2,3-d]pyrimidin-4-yl)-1H-pyrazol-1-yl]azetidin-1-yl}-N-ethylpyridine-2-carboxamide] | A (A means greater than or equal to 10) |
| C[C@@H](NC(=O)c1cnc(N2CC(CC#N)(n3cc(-c4ncnc5[nH]ccc45)cn3)C2)cn1)C(F)(F)F [Example 30, 5-{3-(Cyanomethyl)-3-[4-(7H-pyrrolo[2,3-d]pyrimidin-4-yl)-1H-pyrazol-1-yl]azetidin-1-yl}-N-[(1R)-2,2,2-trifluoro-1-methylethyl]pyrazine-2-carboxamide] | A (A means greater than or equal to 10) |
| N#CCC1(n2cc(-c3ncnc4[nH]ccc34)cn2)CN(c2ccc(C(=O)NC3(C(F)(F)F)CC3)nc2)C1 [Example 17, 5-{3-(Cyanomethyl)-3-[4-(7H-pyrrolo[2,3-d]pyrimidin-4-yl)-1H-pyrazol-1-yl]azetidin-1-yl}-N-[1-(trifluoromethyl)cyclopropyl]pyridine-2-carboxamide] | A (A means greater than or equal to 10) |
| C[C@H](NC(=O)c1ccc(N2CC(CC#N)(n3cc(-c4ncnc5[nH]ccc45)cn3)C2)cn1)C1CC1 [Example 11, 5-{3-(Cyanomethyl)-3-[4-(7H-pyrrolo[2,3-d]pyrimidin-4-yl)-1H-pyrazol-1-yl]azetidin-1-yl}-N-[(1S)-1-cyclopropylethyl]pyridine-2-carboxamide] | A (A means greater than or equal to 10) |

From patent US10513522B2, “Azetidinyl phenyl, pyridyl or pyrazinyl carboxamide derivatives as JAK inhibitors” (Incyte Corporation, priority 2011, dated 2019)
